According to PubChem BioAssay AID732 (Emory University Molecular Libraries Screening Center, 2007):
Calls of active or inactive are those of the source. How the calls were made is not given here.

Test system: in vivo angiogenesis, blood vessel count
Test: angiogenesis inhibition in living animals, in vivo study, HTS (AID 732);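 further: zebrafish embryos dosed at one day post fertilization; 0% = reference inhibitor and 100% = plate mean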
Settings: stronger effect = lower value;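 tested at 30 µM in the well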

SMILES | vessel count % control
N[C@H](CCC(=O)NCS(=O)(=O)O)C(=O)O | 102% (inactive)
NC(N)=NC(=O)c1nc(Cl)c(N)nc1N | 117% (inactive)
NCCNS(=O)(=O)c1cccc2cnccc12 | 98.2% (inactive)
O=C1C(c2c(O)[nH]c3ccc([N+](=O)[O-])cc23)=Nc2ccc(Br)cc21 | 101% (inactive)
COc1ccc2c3c1O[C@H]1C(=O)CC[C@@]4(O)C(C2)N(CC2CC2)CCC314 (stereo partly specified) | 124% (inactive)
CCCN(CCC)[C@@H]1CCc2ccc(O)cc2C1 | 93.2% (inactive)
Cn1c(=O)[nH]c2ncn(C)c2c1=O | 95.7% (inactive)
CSc1nc(N)c2ncn([C@@H]3O[C@H](COP(=O)(O)OP(=O)(O)OP(=O)(O)O)[C@H](O)C3O)c2n1 (stereo partly specified) | 105% (inactive)
COc1cc(-c2ccc(=O)[nH]n2)ccc1OC(F)F | 75.5% (inactive)
Cc1ccc(OCC(O)C(C)NC(C)C)c2c1CCC2 (stereo unspecified) | 103% (inactive)
CN1C2CC(OC(=O)[C@H](CO)c3ccccc3)CC1C1OC12 (stereo partly specified) | 79.7% (inactive)
c1ccc(C2CN3CCSC3=N2)cc1 (stereo unspecified) | 95.6% (inactive)
CC12NC(Cc3ccccc31)c1ccccc12 (stereo unspecified) | 76.2% (inactive)
C[C@@H](N)Cc1cnc[nH]1 | 97.8% (inactive)
Cn1cnc2c1c(=O)[nH]c(=O)n2C | 118% (inactive)
CCCN(CCC)CCc1ccc(O)c(O)c1 | 86.9% (inactive)
CN1CC[C@@]2(C)c3cc(O)ccc3N(C)C12 (stereo partly specified) | 95.1% (inactive)
CC(=O)OCC1=C(C(=O)O)N2C(=O)[C@@H](NC(=O)Cc3cccs3)[C@H]2SC1 | 132% (inactive)
C[C@@H](NCCc1ccc(O)cc1)[C@@H](O)c1ccc(O)cc1 | 92.9% (inactive)
O=C(Nc1ccc([N+](=O)[O-])cc1Cl)c1cc(Cl)ccc1O | 0% (inactive)
O=C(c1ccccc1)c1ccc2n1CCC2C(=O)O (stereo unspecified) | 79.7% (inactive)
NC(=O)c1ncn([C@@H]2O[C@H](CO)[C@@H](O)[C@H]2O)c1O | 94.8% (inactive)
C=CCN1CCc2c(cc(O)c(O)c2Br)[C@@H](c2ccccc2)C1 | 85% (inactive)
NNC(=O)c1ccc(O)cc1 | 97.5% (inactive)
CCCn1c(=O)c2[nH]c(-c3ccc(OCC(=O)NCCN)cc3)nc2n(CCC)c1=O | 99.8% (inactive)
C=CCN1CCC2(C)c3cc(O)ccc3CC1[C@@H]2C (stereo partly specified) | 89.5% (inactive)

SMILES | vessel count % control
O=S1(=O)N(CCN2CC=C(c3c[nH]c4cc(F)ccc34)CC2)c2cccc3c2N1CCC3 | 148% (inactive)
CC(C)(C)c1cc(C=C(C#N)C#N)cc(C(C)(C)C)c1O | 0% (inactive)
CCCCc1ccc(C(=O)O)nc1 | 115% (inactive)
O=c1[nH]cc(F)c(=O)[nH]1 | 111% (inactive)
NCC1OC(O[C@@H]2[C@H](O)C(OC3C(O)C(N)CC(N)C3OC3OC(CO)C(O)C(O)C3N)O[C@@H]2CO)C(N)C(O)C1O (stereo partly specified) | 116% (inactive)
O=C(O)CC[N+](=O)[O-] | 87.6% (inactive)
COc1ccc2c(c1)c(CC(=O)O)c(C)n2C(=O)c1ccc(Cl)cc1 | 112% (inactive)
N[C@@H](CS(=O)O)C(=O)O | 111% (inactive)
Clc1ccc(C(c2ccccc2Cl)C(Cl)Cl)cc1 (stereo unspecified) | 92.7% (inactive)
O=c1[nH]c2cc(Cl)ccc2c(O)c1-c1ccc(Oc2ccccc2)cc1 | 66.8% (inactive)
CO/N=C(\C(=O)N[C@@H]1C(=O)N2C(C(=O)O)=C(CSc3nc(=O)c(O)nn3C)CSC12)c1csc(N)n1 (stereo partly specified) | 117% (inactive)
CC(N)(Cc1ccc(O)cc1)C(=O)O (stereo unspecified) | 105% (inactive)
NC(=O)CN1CC(O)CC1=O (stereo unspecified) | 90.1% (inactive)
O=C(O)c1cc([N+](=O)[O-])ccc1NCCCc1ccccc1 | 92.5% (inactive)
Oc1cc2c(cc1O)[C@H]1c3ccccc3CN[C@@H]1CC2 | 83.3% (inactive)
CCC(=O)c1ccc2c(c1)N(CCCN(C)C)c1ccccc1S2 | 112% (inactive)
NC(CCCP(=O)(O)O)C(=O)O (stereo unspecified) | 75.8% (inactive)
C=CC[C@H](N)C(=O)O | 111% (inactive)
O=C(O)[C@@H]1C[C@H](C(=O)O)N1 | 59.7% (inactive)
C1CCc2nnnn2CC1 | 79% (inactive)
CCCCCCCCCCCCCCCCCCOC[C@H](COP(=O)([O-])OCC[N+](C)(C)C)OC | 97.5% (inactive)
CNC(=O)Oc1ccc2c(c1)[C@]1(C)CCN(C)[C@@H]1N2C | 120% (inactive)
C[C@H]1c2cccc(O)c2C(O)=C2C(=O)[C@]3(O)C(O)=C(C(N)=O)C(=O)[C@@H](N(C)C)[C@@H]3[C@@H](O)[C@@H]21 | 91.8% (inactive)
CN1CCC(=C2c3ccccc3C=Cc3ccccc32)CC1 | 0% (inactive)
N.N.N.N.N.N.N.N.N.N.N.N.N.N.O.O.[Cl-].[Cl-].[Cl-].[Cl-].[Cl-].[Cl-].[Ru+4].[Ru+5].[Ru+5] | 123% (inactive)
COc1cc(=O)n(C)c2c(OCC(O)C(C)(C)O)cccc12 (stereo unspecified) | 75.4% (inactive)

SMILES | vessel count % control
N#CC(C#N)=C(N)/C(C#N)=C/c1ccc(O)cc1 | 93% (inactive)
CCCCc1oc2ccccc2c1C(=O)c1cc(I)c(OCCN(CC)CC)c(I)c1 | 120% (inactive)
CC(=O)O[C@H]1C(=O)[C@@]2(C)C([C@H](OC(=O)c3ccccc3)[C@]3(O)C[C@H](OC(=O)[C@H](O)[C@@H](NC(=O)c4ccccc4)c4ccccc4)C(C)=C1C3(C)C)[C@]1(OC(C)=O)CO[C@@H]1C[C@@H]2O (stereo partly specified) | 82.3% (inactive)
CCC(CO)Nc1nc(NCc2ccccc2)c2ncn(C(C)C)c2n1 (stereo unspecified) | 82.5% (inactive)
c1ccc2c(N3CCNCC3)cccc2c1 | 97.1% (inactive)
NC(N)=N[C@@H](CCC(=O)O)C(=O)O | 99.2% (inactive)
NCc1cc(=O)[nH]o1 | 110% (inactive)
CCC(=O)N1CCN(C(=O)c2ccccc2)CC1 | 134% (inactive)
c1ccc(C2CC2)c(OCC2=NCCN2)c1 | 104% (inactive)
COCc1nc2c([nH]1)c(=O)n(C)c(=O)n2CC(C)C | 93% (inactive)
NC(=NCCC[C@H](N)C(=O)O)NO | 99% (inactive)
COc1ccccc1N1CCN(CCCCN2C(=O)c3ccccc3C2=O)CC1 | 117% (inactive)
CCCNC[C@H](O)COc1ccccc1C(=O)CCc1ccccc1 | 93.1% (inactive)
N[C@@H](Cc1cnc[nH]1)C(=O)O | 107% (inactive)
CNc1cc(NS(=O)(=O)c2ccc(N)cc2)nc(NC)n1 | 81.3% (inactive)
CN(C)C(=O)/N=N/C(=O)N(C)C | 110% (inactive)
CC(=O)SC1CC2=CC(=O)CC[C@]2(C)C2CC[C@@]3(C)C(CC[C@@]34CCC(=O)O4)C12 (stereo partly specified) | 85.3% (inactive)
N#C/C(=C\c1ccc(O)c(O)c1)C(=O)Nc1ccccc1 | 104% (inactive)
N[C@@H](Cn1cc(I)c(=O)[nH]c1=O)C(=O)O | 107% (inactive)
N=C(N)c1ccccc1 | 110% (inactive)
CC(CCc1ccccc1)NCC(O)c1ccc(O)c(C(N)=O)c1 (stereo unspecified) | 89.9% (inactive)
Cc1ncc(CNC(=O)N(CCCl)N=O)c(N)n1 | 90.1% (inactive)
CN1CCc2cccc(Cl)c2CC1 | 93.2% (inactive)
N#C/C(=C\c1ccc(O)c(O)c1)C(=O)c1ccc(O)c(O)c1 | 124% (inactive)
CC(C)NCC(O)COc1cccc2ccccc12 (stereo unspecified) | 117% (inactive)
NCCSSCCN | 118% (inactive)

SMILES | vessel count % control
N=Nc1c(-c2c(O)[nH]c3c(Cl)cc(Cl)cc23)[nH]c2ccc(Br)cc12 | 53.5% (inactive)
Cn1cnc2c(NC3CCCC3)ncnc21 | 95.9% (inactive)
CCCN(CCC)C(=O)Cc1c(-c2ccc(Cl)cc2)nc2c(Cl)cc(Cl)cn12 | 89.9% (inactive)
NNCc1cccc(O)c1 | 85.8% (inactive)
N[C@@H](Cn1ccc(=O)[nH]c1=O)C(=O)O | 102% (inactive)
CC(=O)N1CCN(c2ccc(OC[C@H]3CO[C@](Cn4ccnc4)(c4ccc(Cl)cc4Cl)O3)cc2)CC1 | 113% (inactive)
NC(=O)c1cccc(N)c1 | 117% (inactive)
Nc1ncnc2c1ncn2[C@@H]1O[C@H](CO)[C@H](O)C1O (stereo partly specified) | 105% (inactive)
CC(C)C[C@H](NC(=O)C1OC1C(=O)O)C(=O)NCCCCN=C(N)N (stereo partly specified) | 108% (inactive)
CCCCN1CCC(n2c(=O)[nH]c3ccccc32)CC1 | 67.2% (inactive)
c1ccc(CCCN2CCN(CCOC(c3ccccc3)c3ccccc3)CC2)cc1 | 101% (inactive)
CC(=O)SCC[N+](C)(C)C | 99% (inactive)
Nc1nc2c(ncn2COCCO)c(=O)[nH]1 | 110% (inactive)
CN(C)CCCN1c2ccccc2CCc2ccccc21 | 104% (inactive)
COc1ccc2[nH]cc(CCN(C)C)c2c1 | 83.1% (inactive)
C[C@]12Cc3cn4c(nc3C=C1CCC1C2CC[C@@]2(C)[C@H]1CC[C@@]2(O)C#N)nc1ccccc14 (stereo partly specified) | 97% (inactive)
Cc1[nH]c(=O)c(C#N)cc1-c1ccncc1 | 84.9% (inactive)
NNC(N)=O | 126% (inactive)
COc1ccc2[nH]cc(CCNC(C)=O)c2c1 | 76.5% (inactive)
Cn1cnc2c(NCc3ccccc3)nc(NCCO)nc21 | 98.8% (inactive)
CC(C)=CCC/C(C)=C/CC/C(C)=C/CSc1ccccc1C(=O)O | 78.4% (inactive)
C[C@]12CCC(=O)C=C1CC[C@@H]1[C@@H]2[C@@H](O)C[C@@]2(C)[C@H]1CC[C@]2(O)C(=O)COC(=O)CCC(=O)O | 98.7% (inactive)
NC/C=C/C(=O)O | 97.5% (inactive)
